Assay results: US4942155A, “Biosynthetic anthracyclines related to daunorubicin” (Farmitalia Carlo Erba S.p.A., priority 1986, dated 1990)
Values after ≈ are worked out from the molar mass of the structure shown.

How the values were obtained:
Escherichia coli 026B6 = test: In vitro MIC, standard tube dilution; format: cell-based
From the text: (§1) The in vitro minimum inhibitory concentration (MIC) of FCE 24366, FCE 24367 and daunorubicin, determined for some microorganism using the standard tube dilution procedure, are reported in Table 4.

[1] = system: Escherichia coli ATCC 11303; test: In vitro MIC, standard tube dilution; format: cell-based; conditions: ATCC11303
From the text: as §1

[2] = system: Klebeiella pneumoniae ATCC 10031; test: In vitro MIC, standard tube dilution; format: cell-based
From the text: as §1

[3] = system: Proteus morganii ATCC 25830; test: In vitro MIC, standard tube dilution; format: cell-based; conditions: Morganella morganii, ATCC25830
From the text: as §1

Sarcina lutea ATCC 9341 = test: In vitro MIC, standard tube dilution; format: cell-based; conditions: Micrococcus luteus, ATCC9341
From the text: as §1

[4] = system: Staphylococcus aureus 153; test: In vitro MIC, standard tube dilution; format: cell-based
From the text: as §1

[5] = system: Staphylococcus aureus 209P; test: In vitro MIC, standard tube dilution; format: cell-based
From the text: as §1

[6] = system: Streptococcus faecalis ATCC 8043; test: In vitro MIC, standard tube dilution; format: cell-based; conditions: Enterococcus faecalis, ATCC8043
From the text: as §1

[7] = system: Streptococcus pyogenes ATCC 12384; test: In vitro MIC, standard tube dilution; format: cell-based; conditions: ATCC12384
From the text: as §1

HeLa cells = test: In vitro cytotoxicity on cultured HeLa cells; format: cell-based; conditions: for IC50: Homo sapiens, exposed for 24 hr then plated, read-out: ID50 (the source's name)
From the text: (§2) The cytotoxic activity of the new anthracyclines, FCE 24366 and FCE 24367 have been tested in vitro on cultured HeLa cells, and P388 leukemia cells sensitive (P 388/S) or resistant (P 388/R) to doxorubicin.
^(a) Cells are exposed to the drugs for 24 hr then plated

P388/S leukemia cells = test: In vitro cytotoxicity on P388 leukemia cells sensitive to doxorubicin; format: cell-based; conditions: for IC50: Mus musculus, exposed for 48 hr then plated, read-out: ID50 (the source's name)
From the text: as §2
(§3) ^(b) Cells are exposed to the drugs for 48 hr then plated

P388/R leukemia cells = test: In vitro cytotoxicity on P388 leukemia cells resistant to doxorubicin; format: cell-based; conditions: for IC50: Mus musculus, exposed for 48 hr then plated, read-out: ID50 (the source's name); for activity on P 388/R cell line: cross-resistant to most anthracyclines
From the text: as §2, §3

P388 ascitic leukemia = test: In vivo activity against P388 ascitic leukemia in mice; conditions: for Toxic deaths: macroscopic autopic findings; for MST (T/C %): median survival time, % of untreated controls; for in vivo activity compared with daunorubicin: P388 ascitic leukemia in mice, at dosage levels several times lower
Description: ^(a) Mice were treated i.p. on day 1 after tumor cell inoculation.
^(b) Injected as 1:9 Tween 80:water suspension.
(§4) ^(c) Median survival time expressed as percentage of untreated
^(d) Evaluated on the basis of macroscopic autopic findings.

Gross leukemia = test: In vivo activity against Gross leukemia in mice; conditions: for Toxic deaths: macroscopic autoptic findings; for MST (T/C %): median survival time, % of untreated controls
Description: ^(a) Mice were treated i.v. on day 1 after tumor cell i.v.
^(b) Injected as 1:9 Tween 80:water suspension
as §4
^(d) Evaluated on the basis of macroscopic autoptic findings.

Solubility = format: physicochemical
[8] = Stability in acidic media; format: physicochemical
[9] = acetone, dioxane, N,N-dimethylformamide, N,N-dimethylsulfoxide
[10] = chloroform, dichloromethane, ethyl acetate, lower alcohols
[11] = ethyl ether, n-hexane, petroleum ether and water

SMILES	MIC (Escherichia coli 026B6) [µg/mL]	MIC [1] [µg/mL]	MIC [2] [µg/mL]	MIC [3] [µg/mL]	MIC (Sarcina lutea ATCC 9341) [µg/mL]	MIC [4] [µg/mL]	MIC [5] [µg/mL]	MIC [6] [µg/mL]	MIC [7] [µg/mL]	IC50 (HeLa cells) [ng/mL]	IC50 (P388/S leukemia cells) [ng/mL]	IC50 (P388/R leukemia cells) [µg/mL]	cytotoxic dosage level compared with daunorubicin (HeLa cells)	cytotoxic dosage level compared with daunorubicin (P388/S leukemia cells)	activity on P 388/R cell line (P388/R leukemia cells)	in vivo activity compared with daunorubicin (P388 ascitic leukemia)	solubility (Solubility; [9])	solubility (Solubility; [10])	solubility (Solubility; [11])	stability [8]	other results
COc1cccc2c1C(=O)c1c(O)c3c(c(O)c1C2=O)C[C@@](O)(C(C)=O)C[C@@H]3O[C@H]1C[C@H](N)[C@H](O)[C@H](C)O1 [Daunorubicin, daunorubicin]	6.25 (≈ 11.8 µM)	3.12 (≈ 5.91 µM)	> 100	> 100	1.56 (≈ 2.96 µM)	25 (≈ 47.4 µM)	6.25 (≈ 11.8 µM)	> 100	3.12 (≈ 5.91 µM)	19 (≈ 0.036 µM)	9.5 (≈ 0.018 µM)	0.75 (≈ 1.42 µM)	–	–	–	–	–	–	–	–	Toxic deaths (P388 ascitic leukemia; 2.9 mg/Kg i.p. on day 1): 0/10; MST (T/C %) (P388 ascitic leukemia; 2.9 mg/Kg i.p. on day 1): 160%; Toxic deaths (P388 ascitic leukemia; 4.4 mg/Kg i.p. on day 1): 7/10; MST (T/C %) (P388 ascitic leukemia; 4.4 mg/Kg i.p. on day 1): 150%; Toxic deaths (Gross leukemia; 10 mg/Kg i.v. on day 1): 0/9; MST (T/C %) (Gross leukemia; 10 mg/Kg i.v. on day 1): 183%; Toxic deaths (Gross leukemia; 15 mg/Kg i.v. on day 1): 0/9; MST (T/C %) (Gross leukemia; 15 mg/Kg i.v. on day 1): 217%; Toxic deaths (Gross leukemia; 22.5 mg/Kg i.v. on day 1): 9/9; MST (T/C %) (Gross leukemia; 22.5 mg/Kg i.v. on day 1): 83%
COc1cccc2c1C(=O)c1c(O)c3c(c(O)c1C2=O)C[C@@](O)(C(C)=O)C[C@@H]3O[C@H]1C[C@@H]2NC(C3C(=O)N(C)C(=O)N(C)C3=O)C(C)OC(CC(C)O)O[C@@H]2[C@H](C)O1 (some centres unmarked) [FCE 24366]	1.56 (≈ 1.93 µM)	0.39 (≈ 0.482 µM)	0.78 (≈ 0.963 µM)	12.5 (≈ 15.4 µM)	0.19 (≈ 0.235 µM)	0.78 (≈ 0.963 µM)	0.78 (≈ 0.963 µM)	12.5 (≈ 15.4 µM)	3.12 (≈ 3.85 µM)	0.09 (≈ 0.000111 µM)	0.036 (≈ 4.45e-05 µM)	0.0012 (≈ 0.00148 µM)	several times lower than those of daunorubicin	several times lower than those of daunorubicin	high activity	as active as daunorubicin	soluble	slightly soluble	barely soluble or insoluble	unstable	Toxic deaths (P388 ascitic leukemia; 0.012 mg/Kg i.p. on day 1): 0/10; MST (T/C %) (P388 ascitic leukemia; 0.012 mg/Kg i.p. on day 1): 130%; Toxic deaths (P388 ascitic leukemia; 0.025 mg/Kg i.p. on day 1): 0/10; MST (T/C %) (P388 ascitic leukemia; 0.025 mg/Kg i.p. on day 1): 135%; Toxic deaths (P388 ascitic leukemia; 0.05 mg/Kg i.p. on day 1): 0/10; MST (T/C %) (P388 ascitic leukemia; 0.05 mg/Kg i.p. on day 1): 150%; Toxic deaths (P388 ascitic leukemia; 0.1 mg/Kg i.p. on day 1): 1/10; MST (T/C %) (P388 ascitic leukemia; 0.1 mg/Kg i.p. on day 1): 165%; Toxic deaths (Gross leukemia; 0.13 mg/Kg i.v. on day 1): 0/9; MST (T/C %) (Gross leukemia; 0.13 mg/Kg i.v. on day 1): 117%; Toxic deaths (Gross leukemia; 0.20 mg/Kg i.v. on day 1): 0/8; MST (T/C %) (Gross leukemia; 0.20 mg/Kg i.v. on day 1): 192%; Toxic deaths (Gross leukemia; 0.30 mg/Kg i.v. on day 1): 2/9; MST (T/C %) (Gross leukemia; 0.30 mg/Kg i.v. on day 1): 150%; activity against Gross leukemia compared with daunorubicin (Gross leukemia; Gross leukemia in mice): activity comparable with that of daunorubicin at remarkably lower dosages
COc1cccc2c1C(=O)c1c(O)c3c(c(O)c1C2=O)C[C@@](O)(C(C)=O)C[C@@H]3O[C@H]1C[C@@H]2NC(C3C(=O)NC(=S)NC3=O)C(C)OC(CC(C)O)O[C@@H]2[C@H](C)O1 (some centres unmarked) [FCE 24367]	12.5 (≈ 15.7 µM)	3.12 (≈ 3.91 µM)	25 (≈ 31.3 µM)	100 (≈ 125 µM)	0.78 (≈ 0.978 µM)	6.25 (≈ 7.83 µM)	6.25 (≈ 7.83 µM)	100 (≈ 125 µM)	6.25 (≈ 7.83 µM)	0.7 (≈ 0.000877 µM)	0.003 (≈ 3.76e-06 µM)	0.0038 (≈ 0.00476 µM)	several times lower than those of daunorubicin	several times lower than those of daunorubicin	high activity	as active as daunorubicin	soluble	slightly soluble	barely soluble or insoluble	unstable	Toxic deaths (P388 ascitic leukemia; 0.3 mg/Kg i.p. on day 1): 0/10; MST (T/C %) (P388 ascitic leukemia; 0.3 mg/Kg i.p. on day 1): 145%; Toxic deaths (P388 ascitic leukemia; 0.45 mg/Kg i.p. on day 1): 1/10; MST (T/C %) (P388 ascitic leukemia; 0.45 mg/Kg i.p. on day 1): 150%; Toxic deaths (P388 ascitic leukemia; 0.68 mg/Kg i.p. on day 1): 1/10; MST (T/C %) (P388 ascitic leukemia; 0.68 mg/Kg i.p. on day 1): 155%
